Reference: ChEMBL document CHEMBL1158258, “Bioactive Isoquinoline Quinone from an Undescribed Philippine Marine Sponge of the Genus Xestospongia” (J Nat Prod, 1996)
Converted amounts (≈) assume the structure as drawn. The source made the active and inactive calls. No cut-off for these calls is given here.

How the values were obtained:
[1] = test system: Staphylococcus aureus; test: Antibacterial activity against Staphylococcus aureus ATCC 25923 at 100 ug after 24 hrs by agar plate diffusion assay; type: functional; conditions: ATCC 25923, 24 h, read-out: IZ
[2] = test system: Spodoptera littoralis; test: Insecticidal activity against Spodoptera littoralis neonate larvae assessed as survival at 270 ppm in artificial diet after 6 days relative to control; type: functional
[3] = test system: Spodoptera littoralis; test: Insecticidal activity against Spodoptera littoralis neonate larvae assessed as survival treated with artificial diet after 6 days; type: functional, organism-based
[4] = test system: Bacillus subtilis; test: Antibacterial activity against Bacillus subtilis 168 at 100 ug after 24 hrs by agar plate diffusion assay; type: functional; conditions: for zone of inhibition at 100 µg/disc: subsp. subtilis str. 168, 24 h, read-out: IZ
[5] = test system: Escherichia coli; test: Antibacterial activity against Escherichia coli ATCC 25922 at 100 ug after 24 hrs by agar plate diffusion assay; type: functional, organism-based

Compound | zone of inhibition at 100 µg/disc [1] | Activity [2] | EC50 [3] | LC50 ([3]; Spodoptera littoralis, 144 h) | zone of inhibition at 100 µg/disc [4] | Activity [5] | inhibition zone (IZ) ([4]; subsp. subtilis str. 168)
COC1=C(C)C(=O)c2ccnc(C)c2C1=O | 9 mm | 93% | 35 ppm | 521 µg/mL (≈ 2400 µM) | 12 mm | inactive | 
GENTAMICIN |  |  |  |  |  |  | 16 mm
C/C=C(/C)C(=O)OCC1C2=C(C=CN1/C=C/C(C)=O)C(=O)C(C)=C(OC)C2=O (stereo not given) | 15 mm | 50% |  |  | 15 mm | inactive | 
C/C=C(/C)C(=O)OCc1nccc2c1C(=O)C(OC)=C(C)C2=O [RENIERONE] | 14 mm | 60% |  |  | 15 mm | inactive | 
